Measurements from article PMC3873415, “A Non-Biological Method for Screening Active Components against Influenza Virus from Traditional Chinese Medicine by Coupling a LC Column with Oseltamivir Molecularly Imprinted Polymers” (PLoS ONE, 2013).
“Also recorded” adds a separate entry of the source.

Assays:
[1] = tested on: Influenza virus strain A/Goose/Dalian/3/2001 (H9N2); format: cell-based, avian influenza virus H9N2
[2] = tested on: Influenza virus strain A/Goose/Dalian/3/2001 (H9N2); format: cell-based, avian influenza virus H9N2; remark: listed apart in the source
[3] = tested on: avian influenza virus H9N2; format: cell-based
MDCK cells = settings: dog
Kunming mice = settings: cited from earlier work
enterovirus 71 [4] = settings: enterovirus 71 on rhabdomyosarcoma cells; cited from earlier work
enterovirus 71 [5] = settings: mice challenged with a lethal dose of enterovirus 71; cited from earlier work

**Q.** Which “Activity: CPE” value [1] does the source give for `CCOC(=O)C1=C[C@@H](OC(CC)CC)[C@H](NC(C)=O)[C@@H](N)C1` [OS (template), Oseltamivir] here?
**A.** The CPE of 0.5mg/ml OS-treated group was more severe than viral control group within 48 h. The CPE of groups 0.25, 0.125 and 0.0625 mg/ml were milder than viral control at 72 h.

**Q.** What about the “Activity: HI” value [2] of the same compound?
**A.** No hemagglutination (H) was found in all tested groups at 24, 48 or 72 h.

**Q.** What about the “Activity (see Table 1) qualitative” value [3] of the same compound?
**A.** 1

**Q.** What about the “Activity (see Table 1) semi-quantitative” value [3] of the same compound?
**A.** 3

**Q.** And the “Activity against H9N2 in vitro (in words)” value (shortened to “Activity against H9N2”) [3]?
**A.** had activity of alleviating CPE and HI against H9N2 in vitro

**Q.** What about the “TCD0 (maximum non-toxic concentration)” value (MDCK cells) of the same compound?
**A.** 0.5 mg/mL

**Q.** Which “Activity: CPE” value [1] does the source give for `CC(=O)Oc1ccccc1C(=O)O` [aspirin] here?
**A.** No differences between all treatment and control groups.

**Q.** What about the “Activity: HI” value [2] of the same compound?
**A.** No differences between all treatment and control groups.

**Q.** And the “Activity (see Table 1) qualitative” value [3]?
**A.** 0

**Q.** What about the “Activity (see Table 1) semi-quantitative” value [3] of the same compound?
**A.** 0

**Q.** What about the “TCD0 (maximum non-toxic concentration)” value (MDCK cells) of the same compound?
**A.** >0.5 mg/mL

**Q.** Which “Activity: CPE” value [1] does the source give for `O=C(/C=C/c1ccc(O)c(O)c1)O[C@@H]1C[C@](O)(C(=O)O)C[C@@H](O)[C@H]1O` [chlorogenic acid] here?
**A.** No differences between all treatment and control groups.

**Q.** What about the “Activity: HI” value [2] of the same compound?
**A.** No differences between all treatment and control groups.

**Q.** And the “Activity (see Table 1) qualitative” value [3]?
**A.** 0

**Q.** What about the “Activity (see Table 1) semi-quantitative” value [3] of the same compound?
**A.** 0

**Q.** What about the “TCD0 (maximum non-toxic concentration)” value (MDCK cells) of the same compound?
**A.** 0.016 mg/mL

**Q.** Which results are given for `O=C1CCC[C@@H]2[C@H]3CCCN4CCC[C@@H](CN12)[C@@H]34` [matrine]?
**A.** Activity: CPE [1]: could protect MDCK cells from H9N2 in a dose-dependent manner; also recorded: The CPE of 0.4, 0.2 and 0.1 mg/ml matrine groups were milder than that of the viral control group; Activity: HI [2]: There was no H in 0.2 mg/ml matrine-treated group at 24 h and in 0.4mg/ml matrine-treated group at 24 or 48 h.; Activity (see Table 1) qualitative [3]: 1; Activity (see Table 1) semi-quantitative [3]: 3; Activity against H9N2 in vitro (in words) [3]: had activity of alleviating CPE and HI against H9N2 in vitro and high; TCD0 (maximum non-toxic concentration) (MDCK cells): 0.4 mg/mL; LD50 (Kunming mice; Kunming mice, acute toxicity, 95% confidence limit 88.08-280.31 mg/kg): 157.13 mg/kg; tolerable dose (Kunming mice; Kunming mice, acute toxicity): above 80 mg/kg; Morphological observation (Kunming mice; brain tissue of mice): degenerative changes of the nerve cells in the brain tissue of the mice; viral RNA copy number (enterovirus 71 [4]): could suppress the viral RNA copy number on rhabdomyosarcoma cells; mortality and clinical symptoms (enterovirus 71 [5]): reduced the mortality and relieved clinical symptoms

**Q.** Which “Activity: CPE” value [1] does the source give for `O=C1CCC[C@@H]2[C@H]3CCC[N+]4([O-])CCC[C@@H](CN12)[C@@H]34` (stereo partly shown) [oxymatrine] here?
**A.** No differences between all treatment and control groups.

**Q.** What about the “Activity: HI” value [2] of the same compound?
**A.** No differences between all treatment and control groups.

**Q.** What about the “Activity (see Table 1) qualitative” value [3] of the same compound?
**A.** 0

**Q.** What about the “Activity (see Table 1) semi-quantitative” value [3] of the same compound?
**A.** 0

**Q.** What about the “Activity against H9N2” value [3] of the same compound?
**A.** did not show any similar bioactivities

**Q.** And the “TCD0 (maximum non-toxic concentration)” value (MDCK cells)?
**A.** >2 mg/mL

**Q.** What does the source list for `O=C1CCC[C@@H]2[C@H]3CCC[N+]4([O-])CCC[C@H](CN12)[C@@H]34` (stereo partly shown) [oxysophoridine]?
**A.** Activity: CPE [1]: No differences between all treatment and control groups; Activity: HI [2]: No differences between all treatment and control groups; Activity (see Table 1) qualitative [3]: 0; Activity (see Table 1) semi-quantitative [3]: 0; Activity against H9N2 in vitro (in words) [3]: did not show any similar bioactivities; TCD0 (maximum non-toxic concentration) (MDCK cells): >2 mg/mL

**Q.** For `O=C1CCC[C@@H]2[C@H]3CCCN4CCC[C@H](CN12)[C@@H]34` [sophoridine], which “Activity: CPE” value [1] is on record?
**A.** The CPE of 2 mg/ml sophoridine-treated group was more severe than that of the viral control at 48 h. The CPE of other test groups with low concentration were consistent with that of the viral control at 48 h.

**Q.** And the “Activity: HI” value [2]?
**A.** had HI activity only at concentration of TCD0; also recorded: There was no H of 2 mg/ml sophoridine-treated group at any test time points. But the rest test groups had H at all test time points

**Q.** And the “Activity (see Table 1) qualitative” value [3]?
**A.** 1

**Q.** What about the “Activity (see Table 1) semi-quantitative” value [3] of the same compound?
**A.** 1

**Q.** What about the “Activity against H9N2” value [3] of the same compound?
**A.** low

**Q.** What about the “TCD0 (maximum non-toxic concentration)” value (MDCK cells) of the same compound?
**A.** >2 mg/mL

**Q.** What does the source list for phillyrin?
**A.** Activity: CPE [1]: could not alleviate CPE; also recorded: The CPE of 0.5 and 0.25 mg/ml phillyrin-treated groups were more severe than that of the viral control group within 48 h; Activity: HI [2]: had HI activity; also recorded: There was no H in 0.25 mg/ml phillyrin-treated group at 24 h and in 0.5mg/ml phillyrin-treated group at 24 or 48 h; Activity (see Table 1) qualitative [3]: 1; Activity (see Table 1) semi-quantitative [3]: 1
